Data as given in patent US20160193219A1, “SUBSTITUTED 2,3-DIHYDROIMIDAZO[1,2-C]QUINAZOLINE SALTS” (priority 2011, published 2016).
Structures can show the parent of a compound that is named as a salt. Where two headings read alike, the source gives them in different places.

What was measured:
[1] = 16 h
[2] = Stability as solid (stored at 90° C. for 1 week, HPLC); type: physicochemical; conditions: for therm. stab. solid: 1 w @ 90° C.; for sum of impurities: HPLC area
[3] = Crystallinity by XRPD; type: physicochemical
[4] = for pH: Saturated solution in water; for XRPD (solid residue): solid retained on filter after 20 h in water at 25° C.
[5] = test system: 16 tumor cell lines covering 6 cancer indications; experiment: Proliferation assays, panel of 16 tumor cell lines; type: cell-based; conditions: all the tumor cell lines tested (panel of 16)
Procedure: Cell proliferation is determined using the Cell Titer-Glo luminescent cell viability kit from Promega (Cat. #G7573) after 72 hours exposure to the drugs. Briefly, cells were plated at 500-1000 cells/well of 384-well plates in 25 μL growth medium. For each cell line assayed, cells were plated into a separate plate for determination of luminescence at the t=0 hours and t=72 hour time points. […] Dose plates for t=72 hour time points were treated with compounds diluted into growth medium in a final volume of 30 μL. Cells were then incubated for 72 hours at 37° C. Luminescence values for the t=72 hour samples were determined by adding 30 μL of Promega CellTiter-Glo solution, placing the cells on a shaker for 10 minutes at room temperature, and then reading the luminescence using a Victor luminometer. For data processing, t=0 values are subtracted from those determined for the t=72 hour time points, for both the treated and untreated samples. Percent differences in luminescence between drug treated and controls are used to determine percent inhibition of growth.

[6] = test system: BT474; experiment: Proliferation assay (Cell Titer-Glo, 72 h), BT474; conditions: BT474, Breast, dihydrochloride
[7] = test system: A549; experiment: Proliferation assay (Cell Titer-Glo, 72 h), A549; conditions: A549, Lung, dihydrochloride
[8] = test system: HT29; experiment: Proliferation assay (Cell Titer-Glo, 72 h), HT29; conditions: HT29, Colon, dihydrochloride
[9] = test system: MDA-MB-468; experiment: Proliferation assay (Cell Titer-Glo, 72 h), MDA-MB-468; conditions: MDA-MB-468, Breast, dihydrochloride
[10] = test system: 786O; experiment: Proliferation assay (Cell Titer-Glo, 72 h), 786O; conditions: Kidney, dihydrochloride
[11] = test system: PC3; experiment: Proliferation assay (Cell Titer-Glo, 72 h), PC3; conditions: PC3, Prostate, dihydrochloride
[12] = test system: SK-Br-3; experiment: Proliferation assay (Cell Titer-Glo, 72 h), SK-Br-3; conditions: SK-Br-3, Breast, dihydrochloride
[13] = test system: HCT116; experiment: Proliferation assay (Cell Titer-Glo, 72 h), HCT116; conditions: HCT116, Colon, dihydrochloride
[14] = test system: LNCaP; experiment: Proliferation assay (Cell Titer-Glo, 72 h), LNCaP; conditions: Prostate, dihydrochloride
[15] = test system: Colo205; experiment: Proliferation assay (Cell Titer-Glo, 72 h), Colo205; conditions: Colo205, Colon, dihydrochloride
[16] = test system: BT20; experiment: Proliferation assay (Cell Titer-Glo, 72 h), BT20; conditions: BT20, Breast, dihydrochloride
[17] = test system: H460; experiment: Proliferation assay (Cell Titer-Glo, 72 h), H460; conditions: H460, Lung, dihydrochloride
[18] = Additional solubility data in different solvents (20 h at 25° C.); type: physicochemical
Procedure: The dihydrochloride of formula (II) was stirred in 20 mL of different solvents for 20 h at 25° C. In all hydrous solvents approx. 2 g of the dihydrochloride of formula (II) have been solved completely.

[19] = test system: MCF7; experiment: Proliferation assay (Cell Titer-Glo, 72 h), MCF7; conditions: MCF7, Breast, dihydrochloride
[20] = test system: T47D; experiment: Proliferation assay (Cell Titer-Glo, 72 h), T47D; conditions: Breast, dihydrochloride
[21] = physchem; conditions: 25 °C, water, thermodynamic from solid
[22] = solid stored at 90° C. for 1 week
[23] = listed as Hydrochloric acid (Ex. 1), dihydrochloride

Compound: COc1c(OCCCN2CCOCC2)ccc2c1N=C(NC(=O)c1cnc(N)nc1)N1CCN=C21.O=C(O)/C=C\C(=O)O.O=C(O)/C=C\C(=O)O [Comparative Example 5]
- aqu. solubility [1]: >8.1 mg/100 ml
- therm. stab. solid [2]: +
- HPLC, area % DS [2, 22]: ~96.9% (sum of
- HPLC, wt % DS [2, 22]: 59.4 wt %
- sum of impurities [2, 22]: impurities ~3.1%)
- crystallinity [3]: +
- pH [4]: 3.1
- XRPD (solid residue) [4]: crystalline

Compound: COc1c(OCCCN2CCOCC2)ccc2c1N=C(NC(=O)c1cnc(N)nc1)N1CCN=C21.CS(=O)(=O)O.CS(=O)(=O)O [Comparative Example 6]
- aqu. solubility [1]: >8.3 mg/100 ml
- therm. stab. solid [2]: +
- HPLC, area % DS [2, 22]: ~96.7% (sum of
- HPLC, wt % DS [2, 22]: 59.5 wt %
- sum of impurities [2, 22]: impurities ~3.3%)
- pH [4]: ~2.3

Compound: COc1c(OCCCN2CCOCC2)ccc2c1N=C(NC(=O)c1cnc(N)nc1)N1CCN=C21 [dihydrochloride salt of formula (II), 2-amino-N-[7-methoxy-8-(3-morpholin-4-ylpropoxy)-2,3-dihydroimidazo[1,2-c]quinazolin-5-yl]pyrimidine-5-carboxamide dihydrochloride]
- difference in the IC50 values (free base vs dihydrochloride salt) [5]: less than 3 fold
- IC50 [6]: 10 nM
- IC50 [7]: 44 nM
- IC50 [8]: 10 nM
- IC50 [9]: 256 nM
- IC50 [10]: 247 nM
- therm. stab. solid [2, 23]: +
- HPLC, area % DS [2, 22]: ~98.2%; sum of
- HPLC, wt % DS [2, 22]: ~65.6 wt %
- Stability as solid (Comments) [2, 22]: Stable
- sum of impurities [2, 22]: impurities ~1.8%
- IC50 [11]: 90 nM
- IC50 [12]: 1 nM
- IC50 [13]: 72 nM
- IC50 [14]: 67 nM
- crystallinity [3, 23]: ++
- IC50 [15]: 110 nM
- IC50 [16]: 2 nM
- IC50 [17]: 67 nM
- Solubility ([18]; 0.1M HCl, 20 h at 25° C.): ≧8800 mg/100 ml soluble
- Solubility ([18]; Acetone, 20 h at 25° C.): 0.3 mg/100 ml practically insoluble
- Solubility ([18]; Acetonitrile, 20 h at 25° C.): 1.1 mg/100 ml practically insoluble
- Solubility ([18]; Buffer pH 4.5, 20 h at 25° C.): ≧8900 mg/100 ml soluble
- Solubility ([18]; Buffer pH 7.0, 20 h at 25° C.): ≧8700 mg/100 ml soluble
- Solubility ([18]; Ethanol, 20 h at 25° C.): 24.8 mg/100 ml very slightly soluble
- Solubility ([18]; PEG400, 20 h at 25° C.): 301 mg/100 ml slightly soluble
- Solubility ([18]; Water, 20 h at 25° C.): ≧9400 mg/100 ml soluble
- pH [4]: ~2.4
- XRPD (solid residue) [4]: crystalline
- Solubility ([4]; water, 25° C., 20 h, HPLC): >8.8 mg/100 ml
- IC50 [19]: 9 nM
- IC50 [20]: 2 nM
- solubility thermodynamic at 16 h [21]: > 88 µg/mL
